Experimental findings from patent US5053508A, “Fused heterotricyclic imides with psychotropic activity and intermedrates thereof” (American Home Products Corporation, priority 1990, dated 1991) are described below.

The subject of one test is Male CD rats. Kind of test: conditioned avoidance (shelf-jump response) test. Format: in vivo. To be noted: i.p. From the text:
A test designed to determine the potential antipsychotic activity of the compounds of the invention is the conditioned avoidance (shelf-jump response) test.
Male CD rats (Charles River) maintained at approximately 400-450 gm body weight are used. […] A moveable wall, controlled by a motor, determines whether the rat has access to the shelf at any time during the experiment. The experimental chamber also contains a house light and sonalert. A steel grid floor in the main chamber is wired for presentation of electric shock. Each trial consists of a fifteen-second warning tone (conditioned stimulus), continuing for an additional fifteen seconds accompanied by electric shock (unconditioned stimulus). A response (jumping onto the exposed shelf of the upper chamber) occurring during the initial fifteen-second warning tone is considered an avoidance response, while a response occurring during shock delivery is considered an escape response. Trials are presented on a fixed interval schedule of one minute. The session consists of thirty-six trials. Animals are run twice weekly with control sessions always preceding a drug run, and with at least one day intervening. Compounds are administered i.p. or p.o. at appropriate pre-treatment times to a minimum of five rats at each dose level over a range of doses.
The following experimental parameters are recorded by computer: (1) the number of avoidance responses, (2) the number of escape responses, and (3) the number of trials in which no response occurred.
Response counts are summed over all subjects at a given dose. […] This number is expressed as a percentage of the total trials. Control performance is arbitrarily assigned a value of 100% for avoidance responding and the dose calculated to produce a 50% block in avoidance responding (AB50) is obtained from a dose-effect regression line fitted by the method of least squares. Potential antipsychotic compounds suppress avoidance responding and increase escape responding.
In turn, “6-[4-[4-2-pyrimidinyl)-1-piperazinyl]butyl]-3a,4,4a,7a,8,8a-hexahydro-3-methyl-4,8-methano-5H-pyrrolo[3,4-f]-1,2-benzisoxazole-5,7(6H)-dione, dihydrochloride, hydrate [Example 8]” showed an Active at of 40 mg/kg. Same read-out and setting: under `Cl.O=C1C2C3CS(=O)(=O)CC3C2C(=O)N1CCCCN1CCN(c2cncc(Cl)n2)CC1` (stereo not drawn) [Example 1, 5-[4-[4-(6-chloro-2-pyrazinyl)-1-piperazinyl]butyl]tetrahydro-1H-thieno[3',4':3,4]cyclobuta[1,2-c]pyrrole-4,6(3H,5H)-dione 2,2 dioxide hydrochloride] stands 40 mg/kg; under `Cl.O=C1C2C3CS(=O)(=O)CC3C2C(=O)N1CCCCN1CCN(c2nccnc2Cl)CC1` (stereo not drawn) [Example 2, 5-[4-[4-(3-chloro-2-pyrazinyl)-1-piperazinyl]butyl]tetrahydro-1H-thieno[3',4':3,4]cyclobuta[1,2-c]pyrrole-4,6(3H,5H)dione 2,2-dioxide, hydrochloride], 40 mg/kg; under `CC1=NOC2C3CC(C12)C1C(=O)N(CCCCN2CCN(c4cncc(Cl)n4)CC2)C(=O)C31.O=C(O)C(=O)O` (stereo not drawn) [Example 6, 6-[4-[4-(6-chloro-2-pyrazinyl)-1-piperazinyl]butyl]-3a,4,4a,7a,8,8a-hexahydro-3-methyl-4,8-methano-5H-pyrrolo[3,4-f]-1,2-benzisoxazole-5,7(6H)-dione, ethanedioate (1:1)], 40 mg/kg. Still for that read-out and setting: under `CC1=NOC2C3CC(C12)C1C(=O)N(CCCCN2CCN(c4cnccn4)CC2)C(=O)C31` (stereo not drawn) [Example 7, 6-[4-[4-(2-pyrazinyl)-1-piperazinyl]butyl]-3a,4,4a,7a,8,8a-hexahydro-3-methyl-4,8-methano-5H-pyrrolo[3,4-f]-1,2-benzisoxazole-5,7(6H)-dione, ethanedioate (1:1), hemiethanolate] stands 40 mg/kg; under `CC1=NOC2C3CCC(C12)C1C(=O)N(CCCCN2CCN(c4ncccn4)CC2)C(=O)C31.O=C(O)C(=O)O` (stereo not drawn) [Example 10, 6-[4-[4-(2-pyrimidinyl)-1-piperazinyl]butyl]-3a,4,4a,7a,8,8a-hexahydro-3-methyl-4,8-ethano-5H-pyrrolo[3,4-f]-1,2-benzisoxazole-5,7(6H)-dione, ethanedioate (1:1)], 40 mg/kg.

For the compound `CC1=NOC2C3CCC(C12)C1C(=O)N(CCCCN2CCN(c4cnccn4)CC2)C(=O)C31.O=C(O)C(=O)O` (stereo not drawn) [Example 11, 6-[4-[4-(2-pyrazinyl)-1-piperazinyl]butyl]-3a,4,4a,7a,8,8a-hexahydro-3-methyl-4,8-ethano-5H-pyrrolo[3,4-f]-1,2-benzisoxazole-5,7(6H)-dione, ethanedioate (1:1)], the Active at is given as 40 mg/kg.

The test is the same for the next values; noted with them: p.o.
`Cl.O=C1C2C3CS(=O)(=O)CC3C2C(=O)N1CCCCN1CCN(c2cncc(Cl)n2)CC1` (stereo not drawn) [Example 1, 5-[4-[4-(6-chloro-2-pyrazinyl)-1-piperazinyl]butyl]tetrahydro-1H-thieno[3',4':3,4]cyclobuta[1,2-c]pyrrole-4,6(3H,5H)-dione 2,2 dioxide hydrochloride] showed an Active at of 40 mg/kg.

A further test concerns dopamine receptor.
Assay: not given
The following applies: i.p.; result in words.
Take `O=C1CC2(CCCC2)CC(=O)N1CCCCN1CCN(c2ncccn2)CC1` [Buspirone, 8-[4-[4-(2-pyrimidinyl)-1-piperazinyl]butyl]-8-azaspiro[4.5]decane-7,9-dione]: the “activity in the apomorphine-induced stereotyped behavior assay” value is “inactive”.
